{
  "source": "BigSolDB 2.1",
  "data": [
    {"molecule": "O=[N+]([O-])c1cc([N+](=O)[O-])c(O)c(Cl)c1O", "values": [
      {"measurement": "solubility (mole fraction)", "setting": "in acetic acid, 299.35 K", "result": 0.00649},
      {"measurement": "solubility (mole fraction)", "setting": "in acetic acid, 305.55 K", "result": 0.00872},
      {"measurement": "solubility (mole fraction)", "setting": "in acetic acid, 311.45 K", "result": 0.0112},
      {"measurement": "solubility (mole fraction)", "setting": "in acetic acid, 315.05 K", "result": 0.013},
      {"measurement": "solubility (mole fraction)", "setting": "in acetic acid, 318.75 K", "result": 0.0149},
      {"measurement": "solubility (mole fraction)", "setting": "in acetic acid, 321.85 K", "result": 0.0167},
      {"measurement": "solubility (mole fraction)", "setting": "in acetic acid, 323.95 K", "result": 0.0179},
      {"measurement": "solubility (mole fraction)", "setting": "in acetic acid, 327.65 K", "result": 0.0202},
      {"measurement": "solubility (mole fraction)", "setting": "in acetic acid, 334.65 K", "result": 0.0248},
      {"measurement": "solubility (mole fraction)", "setting": "in acetic acid, 336.45 K", "result": 0.026},
      {"measurement": "solubility (mole fraction)", "setting": "in acetic acid, 340.45 K", "result": 0.0289},
      {"measurement": "solubility (mole fraction)", "setting": "in acetic acid, 343.15 K", "result": 0.0308},
      {"measurement": "solubility (mole fraction)", "setting": "in ethanol, 299.35 K", "result": 0.00297},
      {"measurement": "solubility (mole fraction)", "setting": "in ethanol, 303.15 K", "result": 0.00355},
      {"measurement": "solubility (mole fraction)", "setting": "in ethanol, 307.35 K", "result": 0.00428},
      {"measurement": "solubility (mole fraction)", "setting": "in ethanol, 310.75 K", "result": 0.00493},
      {"measurement": "solubility (mole fraction)", "setting": "in ethanol, 314.25 K", "result": 0.00568},
      {"measurement": "solubility (mole fraction)", "setting": "in ethanol, 317.65 K", "result": 0.00648},
      {"measurement": "solubility (mole fraction)", "setting": "in ethanol, 320.15 K", "result": 0.00711},
      {"measurement": "solubility (mole fraction)", "setting": "in ethanol, 326.35 K", "result": 0.00882},
      {"measurement": "solubility (mole fraction)", "setting": "in ethanol, 329.85 K", "result": 0.00989},
      {"measurement": "solubility (mole fraction)", "setting": "in ethanol, 332.65 K", "result": 0.0108},
      {"measurement": "solubility (mole fraction)", "setting": "in ethanol, 335.45 K", "result": 0.0118},
      {"measurement": "solubility (mole fraction)", "setting": "in ethanol, 339.15 K", "result": 0.0131},
      {"measurement": "solubility (mole fraction)", "setting": "in ethanol, 343.75 K", "result": 0.0148},
      {"measurement": "solubility (mole fraction)", "setting": "in ethyl acetate, 298.75 K", "result": 0.0449},
      {"measurement": "solubility (mole fraction)", "setting": "in ethyl acetate, 302.65 K", "result": 0.0474},
      {"measurement": "solubility (mole fraction)", "setting": "in ethyl acetate, 306.25 K", "result": 0.0498},
      {"measurement": "solubility (mole fraction)", "setting": "in ethyl acetate, 309.95 K", "result": 0.0525},
      {"measurement": "solubility (mole fraction)", "setting": "in ethyl acetate, 313.85 K", "result": 0.0555},
      {"measurement": "solubility (mole fraction)", "setting": "in ethyl acetate, 318.15 K", "result": 0.0589},
      {"measurement": "solubility (mole fraction)", "setting": "in ethyl acetate, 323.15 K", "result": 0.0633},
      {"measurement": "solubility (mole fraction)", "setting": "in ethyl acetate, 327.25 K", "result": 0.067},
      {"measurement": "solubility (mole fraction)", "setting": "in ethyl acetate, 331.85 K", "result": 0.0716},
      {"measurement": "solubility (mole fraction)", "setting": "in ethyl acetate, 333.35 K", "result": 0.0731},
      {"measurement": "solubility (mole fraction)", "setting": "in ethyl acetate, 337.15 K", "result": 0.0772},
      {"measurement": "solubility (mole fraction)", "setting": "in ethyl acetate, 342.55 K", "result": 0.0834},
      {"measurement": "solubility (mole fraction)", "setting": "in ethyl acetate, 344.95 K", "result": 0.0863},
      {"measurement": "solubility (mole fraction)", "setting": "in methanol, 299.75 K", "result": 0.00172},
      {"measurement": "solubility (mole fraction)", "setting": "in methanol, 305.95 K", "result": 0.00239},
      {"measurement": "solubility (mole fraction)", "setting": "in methanol, 308.75 K", "result": 0.00277},
      {"measurement": "solubility (mole fraction)", "setting": "in methanol, 311.25 K", "result": 0.00316},
      {"measurement": "solubility (mole fraction)", "setting": "in methanol, 313.65 K", "result": 0.00359},
      {"measurement": "solubility (mole fraction)", "setting": "in methanol, 315.95 K", "result": 0.00406},
      {"measurement": "solubility (mole fraction)", "setting": "in methanol, 318.15 K", "result": 0.00456},
      {"measurement": "solubility (mole fraction)", "setting": "in methanol, 320.75 K", "result": 0.00524},
      {"measurement": "solubility (mole fraction)", "setting": "in methanol, 323.35 K", "result": 0.006},
      {"measurement": "solubility (mole fraction)", "setting": "in methanol, 327.05 K", "result": 0.00731},
      {"measurement": "solubility (mole fraction)", "setting": "in methanol, 330.15 K", "result": 0.0086},
      {"measurement": "solubility (mole fraction)", "setting": "in water, 298.85 K", "result": "3.49e-05"},
      {"measurement": "solubility (mole fraction)", "setting": "in water, 301.15 K", "result": "3.65e-05"},
      {"measurement": "solubility (mole fraction)", "setting": "in water, 303.65 K", "result": "4.23e-05"},
      {"measurement": "solubility (mole fraction)", "setting": "in water, 306.35 K", "result": "4.59e-05"},
      {"measurement": "solubility (mole fraction)", "setting": "in water, 309.05 K", "result": "4.86e-05"},
      {"measurement": "solubility (mole fraction)", "setting": "in water, 311.35 K", "result": "5.44e-05"},
      {"measurement": "solubility (mole fraction)", "setting": "in water, 313.35 K", "result": "5.67e-05"},
      {"measurement": "solubility (mole fraction)", "setting": "in water, 315.75 K", "result": "6.29e-05"},
      {"measurement": "solubility (mole fraction)", "setting": "in water, 318.15 K", "result": "6.8e-05"},
      {"measurement": "solubility (mole fraction)", "setting": "in water, 320.65 K", "result": "7.62e-05"},
      {"measurement": "solubility (mole fraction)", "setting": "in water, 323.15 K", "result": "8.17e-05"},
      {"measurement": "solubility (mole fraction)", "setting": "in water, 325.85 K", "result": "9.12e-05"},
      {"measurement": "solubility (mole fraction)", "setting": "in water, 327.45 K", "result": "9.79e-05"},
      {"measurement": "solubility (mole fraction)", "setting": "in water, 330.15 K", "result": 0.000106},
      {"measurement": "solubility (mole fraction)", "setting": "in water, 332.25 K", "result": 0.000113},
      {"measurement": "solubility (mole fraction)", "setting": "in water, 336.35 K", "result": 0.00013},
      {"measurement": "solubility (mole fraction)", "setting": "in water, 339.55 K", "result": 0.000142},
      {"measurement": "solubility (mole fraction)", "setting": "in water, 341.95 K", "result": 0.000152}
    ]}
  ]
}
